pIC50: −log10 of the molar value. Values belong to the compound of their own block, whether it stands above or below them. Where a SMILES comes first, the peptide text is derived from it. Where no end group is shown, it is not given here.
Columns and labels:
Assay in all cases: biochemical
Type in all cases: biochemical
[1] = target: T1, enzyme and uptake assay panel targets (Table 36); details: ATPase (Na+/K+); reference compound
T1 construct: other: ATPase (Na+/K+); 1.0E−05M; nH; porcine cerebral cortex

[2] = target: enzyme and uptake assay panel targets (Table 36) (Homo sapiens, UniProt P14780)
[3] = target: enzyme and uptake assay panel targets (Table 36) (Homo sapiens, UniProt P08253)
[4] = target: enzyme and uptake assay panel targets (Table 36) (Homo sapiens, UniProt P03956)
[5] = target: enzyme and uptake assay panel targets (Table 36) (Homo sapiens, UniProt Q13370); details: PDE3B (h); reference compound
[6] = target: enzyme and uptake assay panel targets (Table 36) (Homo sapiens, UniProt Q14790); details: caspase-8 (h); reference compound
[7] = target: T2, enzyme and uptake assay panel targets (Table 36) (Bos taurus, UniProt P80457)
T2 construct: other: xanthine oxidase/superoxide 02^−scavenging; nH; other: xanthine oxldase/superoxide 02 ^−scavenging; 1.0E−05M; ot; purified xanthine oxidase from bovine milk

[8] = target: enzyme and uptake assay panel targets (Table 36) (Homo sapiens, UniProt P08473); details: Peptidase, Metalloproteinase, Neutral Endopeptidase; reference compound
[9] = target: T3, enzyme and uptake assay panel targets (Table 36) (Bos taurus, UniProt P11541+P23439); details: PDE6 (non-selective); reference compound
T3 construct: other: PDE6 (non-selective); 1.0E−05M; nH; bovine retina

[10] = target: enzyme and uptake assay panel targets (Table 36) (Homo sapiens, UniProt P09917)
[11] = target: enzyme and uptake assay panel targets (Table 36) (Homo sapiens, UniProt P18054)
[12] = target: enzyme and uptake assay panel targets (Table 36) (Homo sapiens, UniProt Q9UQM7); details: CaMK2α (h); reference compound
[13] = target: enzyme and uptake assay panel targets (Table 36) (Homo sapiens, UniProt P42574)
[14] = target: enzyme and uptake assay panel targets (Table 36) (Homo sapiens, UniProt P06241); details: Fyn kinase (h); reference compound
[15] = target: enzyme and uptake assay panel targets (Table 36); details: COMT (catechol-O-methyl transferase); reference compound
[16] = target: enzyme and uptake assay panel targets (Table 36) (Homo sapiens, UniProt O76074); details: PDE5 (h) (non-selective); reference compound

Chain of enzyme and uptake assay panel targets (Table 36) (Homo sapiens, UniProt P08473) (P08473 whole entry): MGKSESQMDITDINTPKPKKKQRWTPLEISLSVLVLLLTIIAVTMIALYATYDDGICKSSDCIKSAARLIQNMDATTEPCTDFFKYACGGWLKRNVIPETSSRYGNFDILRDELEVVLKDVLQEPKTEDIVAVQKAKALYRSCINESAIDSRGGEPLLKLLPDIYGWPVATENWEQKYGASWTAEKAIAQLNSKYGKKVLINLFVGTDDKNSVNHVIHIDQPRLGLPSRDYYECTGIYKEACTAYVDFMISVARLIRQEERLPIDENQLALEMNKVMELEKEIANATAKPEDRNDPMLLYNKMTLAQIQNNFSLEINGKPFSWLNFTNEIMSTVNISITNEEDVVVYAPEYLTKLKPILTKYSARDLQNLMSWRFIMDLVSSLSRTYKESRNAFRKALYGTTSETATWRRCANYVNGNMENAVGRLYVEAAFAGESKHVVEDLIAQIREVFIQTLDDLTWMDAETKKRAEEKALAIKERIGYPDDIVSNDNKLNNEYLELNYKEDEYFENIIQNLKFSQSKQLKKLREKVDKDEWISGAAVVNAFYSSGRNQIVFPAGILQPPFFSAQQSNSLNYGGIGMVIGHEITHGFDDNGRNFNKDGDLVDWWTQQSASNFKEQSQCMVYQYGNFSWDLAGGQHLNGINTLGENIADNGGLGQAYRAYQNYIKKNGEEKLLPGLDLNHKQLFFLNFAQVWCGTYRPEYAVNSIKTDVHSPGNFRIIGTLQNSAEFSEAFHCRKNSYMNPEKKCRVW
Chain of enzyme and uptake assay panel targets (Table 36) (Homo sapiens, UniProt Q14790) (Q14790 217-479): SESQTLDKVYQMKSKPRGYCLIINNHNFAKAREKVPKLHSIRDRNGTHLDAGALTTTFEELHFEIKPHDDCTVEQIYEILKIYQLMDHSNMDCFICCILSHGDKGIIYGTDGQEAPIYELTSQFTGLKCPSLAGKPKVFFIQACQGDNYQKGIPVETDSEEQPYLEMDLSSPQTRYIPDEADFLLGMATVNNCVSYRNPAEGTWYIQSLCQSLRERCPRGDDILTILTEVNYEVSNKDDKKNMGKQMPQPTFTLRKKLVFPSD
Chain of enzyme and uptake assay panel targets (Table 36) (Homo sapiens, UniProt P03956) (P03956 100-469): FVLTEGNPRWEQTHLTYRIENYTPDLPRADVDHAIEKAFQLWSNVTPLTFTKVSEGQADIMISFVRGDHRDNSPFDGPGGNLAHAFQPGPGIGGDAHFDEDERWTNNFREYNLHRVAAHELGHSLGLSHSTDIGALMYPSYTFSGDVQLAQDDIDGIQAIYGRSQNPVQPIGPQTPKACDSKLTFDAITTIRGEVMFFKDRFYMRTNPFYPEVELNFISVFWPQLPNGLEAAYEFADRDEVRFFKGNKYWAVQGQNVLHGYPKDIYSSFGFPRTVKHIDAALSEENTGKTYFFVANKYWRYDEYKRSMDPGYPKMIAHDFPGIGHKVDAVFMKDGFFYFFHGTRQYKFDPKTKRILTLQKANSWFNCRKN
Chain of enzyme and uptake assay panel targets (Table 36) (Homo sapiens, UniProt P08253) (P08253 110-660): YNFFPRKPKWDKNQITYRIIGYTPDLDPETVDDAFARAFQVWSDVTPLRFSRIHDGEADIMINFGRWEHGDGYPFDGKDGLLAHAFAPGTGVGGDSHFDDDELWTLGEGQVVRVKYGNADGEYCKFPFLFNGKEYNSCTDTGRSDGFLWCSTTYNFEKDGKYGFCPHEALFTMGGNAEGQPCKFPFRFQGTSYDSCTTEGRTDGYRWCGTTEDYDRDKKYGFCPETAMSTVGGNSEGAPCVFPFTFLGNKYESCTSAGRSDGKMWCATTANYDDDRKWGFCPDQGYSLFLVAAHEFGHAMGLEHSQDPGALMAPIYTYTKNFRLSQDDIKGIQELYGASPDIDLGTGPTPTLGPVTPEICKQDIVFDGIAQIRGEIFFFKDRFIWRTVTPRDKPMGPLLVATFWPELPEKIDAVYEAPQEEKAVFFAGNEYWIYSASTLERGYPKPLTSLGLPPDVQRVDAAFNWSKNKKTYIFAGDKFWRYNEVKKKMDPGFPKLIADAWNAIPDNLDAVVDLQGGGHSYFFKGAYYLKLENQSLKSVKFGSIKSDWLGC
Chain of enzyme and uptake assay panel targets (Table 36) (Homo sapiens, UniProt Q13370) (Q13370 whole entry): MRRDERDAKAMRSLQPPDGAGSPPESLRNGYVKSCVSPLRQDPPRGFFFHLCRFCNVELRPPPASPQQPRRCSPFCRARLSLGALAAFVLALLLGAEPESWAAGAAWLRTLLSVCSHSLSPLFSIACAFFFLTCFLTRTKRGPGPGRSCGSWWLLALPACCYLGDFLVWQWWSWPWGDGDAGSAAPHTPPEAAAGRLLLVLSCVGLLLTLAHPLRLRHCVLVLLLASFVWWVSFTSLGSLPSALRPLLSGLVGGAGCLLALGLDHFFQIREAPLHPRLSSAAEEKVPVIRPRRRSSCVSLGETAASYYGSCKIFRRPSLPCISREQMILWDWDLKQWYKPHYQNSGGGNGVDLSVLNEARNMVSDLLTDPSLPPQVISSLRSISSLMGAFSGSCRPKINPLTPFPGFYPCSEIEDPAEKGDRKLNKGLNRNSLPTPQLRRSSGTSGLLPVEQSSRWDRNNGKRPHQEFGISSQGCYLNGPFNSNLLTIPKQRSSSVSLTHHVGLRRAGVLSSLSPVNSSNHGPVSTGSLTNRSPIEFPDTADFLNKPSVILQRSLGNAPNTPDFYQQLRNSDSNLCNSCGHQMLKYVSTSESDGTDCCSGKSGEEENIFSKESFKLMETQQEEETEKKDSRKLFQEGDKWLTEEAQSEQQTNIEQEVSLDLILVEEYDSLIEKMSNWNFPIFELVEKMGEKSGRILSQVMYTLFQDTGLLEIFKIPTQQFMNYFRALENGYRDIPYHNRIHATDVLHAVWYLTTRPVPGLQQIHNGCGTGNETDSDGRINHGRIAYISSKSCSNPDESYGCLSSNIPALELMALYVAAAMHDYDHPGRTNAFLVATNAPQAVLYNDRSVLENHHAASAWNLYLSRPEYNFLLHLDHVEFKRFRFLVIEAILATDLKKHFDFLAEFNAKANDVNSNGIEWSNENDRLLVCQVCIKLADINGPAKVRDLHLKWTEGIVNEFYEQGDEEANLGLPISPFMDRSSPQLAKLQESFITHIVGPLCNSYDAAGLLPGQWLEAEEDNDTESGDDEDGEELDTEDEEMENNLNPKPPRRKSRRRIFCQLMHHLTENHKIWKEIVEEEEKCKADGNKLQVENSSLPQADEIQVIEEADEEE
Chain of enzyme and uptake assay panel targets (Table 36) (Homo sapiens, UniProt P09917) (P09917 whole entry): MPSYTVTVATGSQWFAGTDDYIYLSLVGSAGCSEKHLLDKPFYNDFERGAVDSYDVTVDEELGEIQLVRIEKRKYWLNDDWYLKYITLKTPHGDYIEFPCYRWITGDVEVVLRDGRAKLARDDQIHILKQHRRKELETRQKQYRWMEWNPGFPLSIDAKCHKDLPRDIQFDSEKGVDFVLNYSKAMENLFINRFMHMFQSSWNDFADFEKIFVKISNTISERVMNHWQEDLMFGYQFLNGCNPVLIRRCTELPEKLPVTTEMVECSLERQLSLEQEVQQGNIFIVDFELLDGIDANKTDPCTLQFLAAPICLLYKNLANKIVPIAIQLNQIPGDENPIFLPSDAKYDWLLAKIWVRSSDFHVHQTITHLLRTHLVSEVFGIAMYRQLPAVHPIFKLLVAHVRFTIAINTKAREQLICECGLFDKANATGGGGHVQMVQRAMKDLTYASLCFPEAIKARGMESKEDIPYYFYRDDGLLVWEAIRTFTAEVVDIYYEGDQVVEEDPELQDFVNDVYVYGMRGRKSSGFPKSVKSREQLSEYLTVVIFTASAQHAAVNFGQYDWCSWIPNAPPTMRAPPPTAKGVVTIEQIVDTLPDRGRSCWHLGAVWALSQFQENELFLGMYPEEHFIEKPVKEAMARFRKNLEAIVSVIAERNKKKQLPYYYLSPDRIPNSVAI
Chain of enzyme and uptake assay panel targets (Table 36) (Homo sapiens, UniProt P42574) (P42574 29-277): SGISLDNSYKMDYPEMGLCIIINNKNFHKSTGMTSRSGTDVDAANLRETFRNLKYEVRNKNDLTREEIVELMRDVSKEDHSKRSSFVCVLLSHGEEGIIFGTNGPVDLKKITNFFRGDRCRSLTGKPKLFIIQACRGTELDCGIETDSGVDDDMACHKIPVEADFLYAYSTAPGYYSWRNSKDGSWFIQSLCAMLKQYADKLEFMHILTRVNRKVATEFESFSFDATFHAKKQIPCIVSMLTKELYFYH
Chain of enzyme and uptake assay panel targets (Table 36) (Homo sapiens, UniProt Q9UQM7) (Q9UQM7 whole entry): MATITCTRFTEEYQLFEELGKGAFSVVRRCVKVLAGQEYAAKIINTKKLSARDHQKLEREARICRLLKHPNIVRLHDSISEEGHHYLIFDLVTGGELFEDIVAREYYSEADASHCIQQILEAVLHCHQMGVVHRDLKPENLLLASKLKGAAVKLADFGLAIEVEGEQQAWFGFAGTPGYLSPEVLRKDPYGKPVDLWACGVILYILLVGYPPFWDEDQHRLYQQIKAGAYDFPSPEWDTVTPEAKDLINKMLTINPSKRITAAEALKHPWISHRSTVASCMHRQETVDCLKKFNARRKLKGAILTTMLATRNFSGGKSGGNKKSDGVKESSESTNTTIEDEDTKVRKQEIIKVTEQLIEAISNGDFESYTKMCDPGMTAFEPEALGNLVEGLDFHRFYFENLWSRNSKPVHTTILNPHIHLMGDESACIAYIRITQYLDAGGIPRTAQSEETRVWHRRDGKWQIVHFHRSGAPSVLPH
Chain of enzyme and uptake assay panel targets (Table 36) (Homo sapiens, UniProt P06241) (P06241 whole entry): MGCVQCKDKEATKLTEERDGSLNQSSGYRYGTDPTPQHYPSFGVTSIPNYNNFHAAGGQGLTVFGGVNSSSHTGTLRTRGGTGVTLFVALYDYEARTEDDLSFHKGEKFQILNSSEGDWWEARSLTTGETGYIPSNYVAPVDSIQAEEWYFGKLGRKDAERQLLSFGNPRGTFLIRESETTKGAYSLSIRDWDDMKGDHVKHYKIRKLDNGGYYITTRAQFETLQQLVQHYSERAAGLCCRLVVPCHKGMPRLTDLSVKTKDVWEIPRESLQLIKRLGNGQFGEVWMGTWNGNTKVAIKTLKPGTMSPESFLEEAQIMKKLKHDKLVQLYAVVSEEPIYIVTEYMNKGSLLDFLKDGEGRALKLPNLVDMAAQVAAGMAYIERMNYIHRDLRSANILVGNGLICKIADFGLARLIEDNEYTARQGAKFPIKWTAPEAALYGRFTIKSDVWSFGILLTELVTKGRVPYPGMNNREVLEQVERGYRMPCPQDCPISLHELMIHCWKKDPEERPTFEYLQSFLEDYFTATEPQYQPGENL

Compound: C[C@@H]1O[C@@H](O[C@H]2C[C@@H](O)[C@]3(CO)[C@H]4[C@H](O)C[C@]5(C)[C@@H](C6=CC(=O)OC6)CC[C@]5(O)[C@@H]4CC[C@]3(O)C2)[C@H](O)[C@H](O)[C@H]1O [ouabain]
- pIC50 [1]: 6.00

Compound: CNC(=O)[C@H](Cc1c[nH]c2ccccc12)NC(=O)[C@@H](CC(=O)NO)CC(C)C [GM6001]
- nH [2]: 0.9
- nH [3]: 1.3
- nH [4]: 1.3

- nH [5]: 0.9
Compound: Cc1[nH]c(=O)c(C#N)cc1-c1ccncc1 [milrinone]

- IC50 [6]: 28 nM
- nH [6]: 0.8
Compound: CC[C@H](C)[C@H](NC(C)=O)C(=O)N[C@@H](CCC(=O)O)C(=O)N[C@H](C(=O)N[C@H](C=O)CC(=O)O)[C@@H](C)O [Ac-IETD-CHO] (Ac-IETD-aldehyde)

Compound: Oc1ncnc2[nH]ncc12 [allopurinol]
- nH [7]: 1.3

- IC50 [8]: 16 nM
- nH [8]: 0.9
Compound: CC(C)C[C@H](NP(=O)(O)O[C@@H]1O[C@@H](C)[C@H](O)[C@@H](O)[C@H]1O)C(=O)N[C@@H](Cc1c[nH]c2ccccc12)C(=O)O [Phosphoramidon]

Compound: CCCOc1ccccc1-c1nc2nn[nH]c2c(=O)[nH]1 [zaprinast]
- nH [9]: 1.0

Compound: CC(Cc1ccc(O)c(O)c1)C(C)Cc1ccc(O)c(O)c1 (stereo not drawn) [NDGA]
- nH [10]: 1.6
- nH [11]: 1.2

- IC50 [12]: 260 nM
Compound: KKALRRQEAVDAL [AIP]

Compound: CC(=O)N[C@@H](CC(=O)O)C(=O)N[C@@H](CCC(=O)O)C(=O)N[C@H](C(=O)N[C@H](C=O)CC(=O)O)C(C)C [Ac-DEVD-CHO]
- nH [13]: 1.1

Compound: Cc1ccc(-c2nn(C(C)(C)C)c3ncnc(N)c23)cc1 [PP1]
- nH [14]: >3

Compound: O=C(c1cc(O)c(O)c([N+](=O)[O-])c1)c1ccccc1F [Ro 41-0960]
- pIC50 [15]: 7.52

- nH [16]: 1.1
Compound: OCCN(CCO)c1nc(N2CCCCC2)c2nc(N(CCO)CCO)nc(N3CCCCC3)c2n1 [dipyridamole]

From patent US12240816B2, “Deuterated compounds and uses thereof” (Aldeyra Therapeutics, Inc., priority 2015, dated 2025)
